Measured values as given in ChEMBL document CHEMBL1132382 (J Med Chem, 1999).
pKi: −log10 of the molar value. Each block holds one molecule with its values, some of them ahead of it.

Legend:
[1] = molecular target: T1, Carbonic anhydrase 4 (Bos taurus, UniProt Q95323)
T1 sequence (Q95323 whole entry): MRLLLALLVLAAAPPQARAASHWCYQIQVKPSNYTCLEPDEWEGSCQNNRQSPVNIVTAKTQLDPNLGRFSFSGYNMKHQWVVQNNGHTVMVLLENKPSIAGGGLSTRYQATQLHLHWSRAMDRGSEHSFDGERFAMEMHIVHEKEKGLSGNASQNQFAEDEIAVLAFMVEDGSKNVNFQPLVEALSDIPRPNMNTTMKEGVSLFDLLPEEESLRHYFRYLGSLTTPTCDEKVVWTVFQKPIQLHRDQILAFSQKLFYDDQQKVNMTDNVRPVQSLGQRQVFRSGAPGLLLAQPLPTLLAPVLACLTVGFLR
Description: Inhibitory activity against bovine carbonic anhydrase IV (CA4), isolated from bovine lung microsomes

[2] = molecular target: Carbonic anhydrase 1 (Homo sapiens, UniProt P00915)
Carbonic anhydrase 1, sequence (P00915 whole entry): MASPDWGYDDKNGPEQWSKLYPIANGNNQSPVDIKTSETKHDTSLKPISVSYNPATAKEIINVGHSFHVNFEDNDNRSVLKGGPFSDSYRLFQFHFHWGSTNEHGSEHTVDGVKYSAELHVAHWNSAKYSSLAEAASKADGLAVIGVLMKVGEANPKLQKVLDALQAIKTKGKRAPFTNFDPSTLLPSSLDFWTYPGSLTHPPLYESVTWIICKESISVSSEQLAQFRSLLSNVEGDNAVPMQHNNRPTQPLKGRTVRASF
Description: Inhibitory activity against human recombinant carbonic anhydrase I (CA1)

SMILES: CNCC(=O)NS(=O)(=O)c1ccc(CO)cc1
pKi [1]: 6.91
pKi [2]: 5.82

SMILES: CN(CC(=O)Nc1cccc(S(N)(=O)=O)c1)C(=N)N
pKi [1]: 6.75
pKi [2]: 4.79

SMILES: CN(CC(=O)Nc1ccccc1S(N)(=O)=O)C(=N)N
pKi [1]: 6.69
pKi [2]: 4.69

SMILES: NCC(=O)Nc1nccc(Nc2ccc(S(N)(=O)=O)cc2)n1
pKi [1]: 7.12
pKi [2]: 7.21

SMILES: NCC(=O)NCc1ccc(S(N)(=O)=O)cc1
pKi [1]: 7.09
pKi [2]: 5.85

SMILES: NCC(=O)NCC(=O)NNc1ccc(S(N)(=O)=O)cc1
pKi [1]: 6.52
pKi [2]: 4.60

SMILES: NCC(=O)NS(=O)(=O)c1ccc(CO)cc1
pKi [1]: 6.74
pKi [2]: 5.74

SMILES: NCC(=O)NCC(=O)NS(=O)(=O)c1ccc(CO)cc1
pKi [1]: 6.82
pKi [2]: 5.82

SMILES: NCC(=O)NCCc1ccc(S(N)(=O)=O)cc1
pKi [1]: 7.12
pKi [2]: 6.07

SMILES: NCC(=O)Nc1ccc(S(N)(=O)=O)cc1
pKi [1]: 6.76

SMILES: CN(CC(=O)NCc1ccc(S(N)(=O)=O)cc1)C(=N)N
pKi [1]: 7.15
pKi [2]: 6.02

SMILES: NCC(=O)NNc1ccc(S(N)(=O)=O)cc1
pKi [1]: 6.52
pKi [2]: 4.59

SMILES: NCC(=O)NCC(=O)Nc1cccc(S(N)(=O)=O)c1
pKi [1]: 6.63
pKi [2]: 4.77

SMILES: NCC(=O)NCC(=O)NCc1ccc(S(N)(=O)=O)cc1
pKi [1]: 7.12
pKi [2]: 5.87

SMILES: NCC(=O)NCC(=O)Nc1ccc(S(N)(=O)=O)cc1Br
pKi [1]: 7.15
pKi [2]: 6.24

SMILES: NCC(=O)Nc1ccc(S(N)(=O)=O)cc1Br
pKi [1]: 7.14
pKi [2]: 6.22

SMILES: CN(CC(=O)NNc1ccc(S(N)(=O)=O)cc1)C(=N)N
pKi [1]: 6.61
pKi [2]: 4.68

SMILES: CNCC(=O)NS(=O)(=O)c1ccc(CCO)cc1
pKi [1]: 6.95
pKi [2]: 5.89

SMILES: NCC(=O)NCC(=O)NS(=O)(=O)c1ccc(CCO)cc1
pKi [1]: 6.82
pKi [2]: 5.82

SMILES: CN(CC(=O)NS(=O)(=O)c1ccc(CO)cc1)C(=N)N
pKi [1]: 7.05
pKi [2]: 5.92

SMILES: CNCC(=O)Nc1ccc(S(=O)(=O)/N=c2\sc(S(N)(=O)=O)nn2C)cc1
pKi [2]: 7.96

Continued by rising pKi [1], values first:

pKi [1]: 7.15
pKi [2]: 6.47
SMILES: Cn1nc(S(N)(=O)=O)s/c1=N\C(=O)CN

pKi [1]: 7.15
pKi [2]: 6.25
SMILES: CNCC(=O)Nc1ccc(S(N)(=O)=O)cc1I

pKi [1]: 7.15
pKi [2]: 6.10
SMILES: NCC(=O)NCC(=O)NCCc1ccc(S(N)(=O)=O)cc1

pKi [1]: 7.16
pKi [2]: 7.80
SMILES: NCC(=O)NS(=O)(=O)c1nc2ccc(O)cc2s1

pKi [1]: 7.19
pKi [2]: 6.26
SMILES: NCC(=O)NCC(=O)Nc1ccc(S(N)(=O)=O)cc1Cl

pKi [1]: 7.19
pKi [2]: 6.27
SMILES: CNCC(=O)Nc1ccc(S(N)(=O)=O)cc1Br

pKi [1]: 7.19
pKi [2]: 6.11
SMILES: CN(CC(=O)NCCc1ccc(S(N)(=O)=O)cc1)C(=N)N

pKi [1]: 7.21
pKi [2]: 7.29
SMILES: CNCC(=O)Nc1ccc(S(=O)(=O)Nc2cccc(S(N)(=O)=O)c2)cc1

pKi [1]: 7.22
pKi [2]: 7.22
SMILES: CNCC(=O)Nc1nccc(Nc2ccc(S(N)(=O)=O)cc2)n1

pKi [1]: 7.22
pKi [2]: 6.44
SMILES: NCC(=O)Nc1cc(Cl)c(S(N)(=O)=O)cc1S(N)(=O)=O

pKi [1]: 7.22
pKi [2]: 7.26
SMILES: NCC(=O)NCC(=O)Nc1ccc(S(=O)(=O)Nc2cccc(S(N)(=O)=O)c2)cc1

pKi [1]: 7.24
pKi [2]: 7.35
SMILES: CN(CC(=O)Nc1ccc(S(=O)(=O)Nc2cccc(S(N)(=O)=O)c2)cc1)C(=N)N

pKi [1]: 7.26
pKi [2]: 6.28
SMILES: CNCC(=O)Nc1c(S(N)(=O)=O)cc(S(N)(=O)=O)c(Cl)c1Cl

pKi [1]: 7.27
pKi [2]: 6.44
SMILES: NCC(=O)NCC(=O)Nc1cc(Cl)c(S(N)(=O)=O)cc1S(N)(=O)=O

pKi [1]: 7.29
pKi [2]: 7.34
SMILES: CN(CC(=O)Nc1ccc(S(=O)(=O)Nc2ccc(S(N)(=O)=O)cc2)cc1)C(=N)N

pKi [1]: 7.36
pKi [2]: 6.55
SMILES: Cn1nc(S(N)(=O)=O)s/c1=N/C(=O)CNC(=O)CN

pKi [1]: 7.38
pKi [2]: 6.51
SMILES: CN(CC(=O)Nc1cc(Cl)c(S(N)(=O)=O)cc1S(N)(=O)=O)C(=N)N

pKi [1]: 7.40
pKi [2]: 7.28
SMILES: CN(CC(=O)Nc1nccc(Nc2ccc(S(N)(=O)=O)cc2)n1)C(=N)N

pKi [1]: 7.41
pKi [2]: 6.52
SMILES: CNCC(=O)Nc1nnc(S(N)(=O)=O)s1

pKi [1]: 7.64
pKi [2]: 8.05
SMILES: NCC(=O)NS(=O)(=O)c1nc2ccc(OCCO)cc2s1

pKi [1]: 7.82
pKi [2]: 7.96
SMILES: CN(CC(=O)NS(=O)(=O)c1nc2ccc(O)cc2s1)C(=N)N

pKi [1]: 7.82
pKi [2]: 8.00
SMILES: CNCC(=O)NS(=O)(=O)c1nc2ccc(OCCO)cc2s1

pKi [1]: 7.92
pKi [2]: 8.00
SMILES: CN(CC(=O)Nc1ccc2nc(S(N)(=O)=O)sc2c1)C(=N)N

pKi [1]: 8.05
pKi [2]: 7.68
SMILES: CNCC(=O)NCCC(=O)Nc1nnc(S(N)(=O)=O)s1
